Experimental data: patent US20180064646A1, “METHOD AND DEVICE FOR ADMINISTERING XINAFOATE SALT OF N4-(2,2-DIFLUORO-4H-BENZO[1,4]OXAZIN-3-ONE)-6-YL]-5-FLUORO-N2-[3-(METHYLAMINOCARBONYLMETHYLENEOXY)PHENYL]2,4-PYRIMIDINEDIAMINE” (Rigel Pharmaceutical, Inc., priority 2011, published 2018)
Counter-ions that a name gives are not always drawn.

How the values were obtained:
Type in all cases: physicochemical
[1] = Solvation/hydration assessed by thermogravimetric analysis (TGA); solid form screening; conditions: for hydration or solvation: TGA, ambient to 300° C. at 20° C./min
Method: (§1) Hygroscopicity was assessed using dynamic vapor sorption equipment (Surface Measurement Systems Ltd, model DVS-1). The analysis was conducted at 30° C. with a nitrogen gas flow of 200 cc/min. Water sorption and desorption were determined in the range 0 to 90% relative humidity (RH) using 15% RH intervals. Exposure was for a minimum of 2 hours at each humidity, or until the rate of weight change was less than 0.0003%/minute (averaged over 10 minutes). Sample weight was 12.6 mg. The sample was weighed using a CAHN D-200, seven place digital recording balance, which is an integral part of the equipment. […] Solvation/Hydration was assessed by thermogravimetric analysis (TGA) using a TA Instruments Hi-Res TGA 2950 instrument measuring the weight loss of an 8.8 mg sample in an open platinum pan. The sample was heated at 20° C./min from ambient to 300° C. utilizing a nitrogen furnace purge gas.

[2] = Hygroscopicity by dynamic vapor sorption (DVS)
Method: as §1

[3] = Solid state stability and excipient compatibility on storage (drug content and impurities); conditions: for % main band remaining versus control: API
Method: In order to test for solid state stability and excipient compatibility, a sample of the xinafoate salt was micronized by jet milling (particle size: D10=0.24 μm; D50=1.15 D90=4.29 μm) and the resulting powder was blended at a 1:100 weight ratio with lactose monohydrate (Respitose grade SV008). Samples were stored for 12 weeks at 25° C./60% relative humidity and 40° C./75% relative humidity and assayed for remaining drug content and impurities at 4, 8 and 12 weeks. A control sample was stored at 5° C./0% humidity.

Row | hydration or solvation [1] | hygroscopicity ([2]; DVS, 0 to 90% RH, 30° C.) | water sorption ([2]; at 90% RH, 30° C., DVS, unmicronized sample) [%] | water sorption ([2]; at 90% relative humidity, following micronization using jet milling) [%] | solid form after micronization ([2]; following micronization using jet milling) | time for which stable ([3]; 25° C./60% relative humidity) | time for which stable ([3]; 40° C./75% relative humidity) | % main band remaining versus control ([3]; 25° C./60% RH, 4 weeks, control 5° C./0% humidity) [%] | % main band remaining versus control ([3]; 25° C./60% RH, 8 weeks) [%] | % main band remaining versus control ([3]; 25° C./60% RH, 12 weeks) [%] | % main band remaining versus control ([3]; 40° C./75% RH, 4 weeks) [%] | % main band remaining versus control ([3]; 40° C./75% RH, 8 weeks) [%] | % main band remaining versus control ([3]; 40° C./75% RH, 12 weeks) [%] | SMILES | solvate formation ([1]; nine solvents tested)
1 | hydrates to form a hemihydrate |  |  |  |  |  |  |  |  |  |  |  |  | CNC(=O)COc1cccc(Nc2ncc(F)c(Nc3ccc4c(c3)NC(=O)C(F)(F)O4)n2)c1 [free base, N4-[(2,2-difluoro-4H-benzo[1,4]oxazin-3-one)-6-yl]-5-fluoro-N2-[3-(methylaminocarbonylmethyleneoxy)phenyl]-2,4-pyrimidinediamine] | formed a different solvated form in each of nine solvents tested
2 | does not show any hydration or solvation | essentially non-hygroscopic | 0.6 | 0.9 | no change in solid form | at least two years | at least six months | 100.2 | 99.9 | 100.1 | 100.4 | 100.0 | 100.0 | CNC(=O)COc1cccc(Nc2ncc(F)c(Nc3ccc4c(c3)NC(=O)C(F)(F)O4)n2)c1 [xinafoate salt, N4-[(2,2-difluoro-4H-benzo[1,4]oxazin-3-one)-6-yl]-5-fluoro-N2-[3-(methylaminocarbonylmethyleneoxy)phenyl]-2,4-pyrimidinediamine] | 
